{"source": "paper PMC9878617", "about": "“Distinct conformational changes occur within the intrinsically unstructured pro‐domain of pro‐Nerve Growth Factor in the presence of ATP and Mg^2+” (Protein Science : A Publication of the Protein Society, 2023)", "target": "T1, rh-proNGF (Homo sapiens, UniProt P01138)", "T1 construct": "gene NGF; proNGF without signal peptide; homodimer", "T1 sequence (P01138 19-241)": "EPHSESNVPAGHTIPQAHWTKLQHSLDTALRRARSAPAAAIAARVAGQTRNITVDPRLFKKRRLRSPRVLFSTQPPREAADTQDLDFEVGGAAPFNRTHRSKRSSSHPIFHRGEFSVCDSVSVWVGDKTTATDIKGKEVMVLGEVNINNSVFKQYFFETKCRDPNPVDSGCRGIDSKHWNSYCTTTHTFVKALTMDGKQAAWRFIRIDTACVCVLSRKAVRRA", "experiment": "ITC, global fit of two titrations (SEDPHAT)", "assay_type": "binding", "conditions": "read-out: Best-fit value", "text": "ITC, global fit of two titrations (SEDPHAT) on rh-proNGF", "data": [{"smiles": "Nc1ncnc2c1ncn2[C@@H]1O[C@H](COP(=O)(O)OP(=O)(O)OP(=O)(O)O)[C@@H](O)[C@H]1O", "note": "[ATP]", "values": [{"measurement": "Kd", "result": 39.7, "unit": "µM"}]}]}
